# Data taken from US20160257697A1, “THIOPHENE-SUBSTITUTED TETRACYCLIC COMPOUNDS AND METHODS OFUSE THEREOF FOR THE TREATMENT OF VIRAL DISEASES” (priority 2013, published 2016).
# Like-named read-outs stand apart in the source and are kept apart here.
# Key:
# Assay in all cases: microbe, parasite or virus in culture
# Type in all cases: cell-based, Hepatitis C virus (HCV)
# Conditions in all cases: Replicon Assay A
# HCV replicon 1AY93H = tested on: HCV replicon 1AY93H
# Procedure: (§1) To measure cell-based anti-HCV activity of compounds of the present invention, two complimentary assays were employed using various replicons. In the first assay (“Replicon Assay A”), replicon cells were seeded at 2000 cells/well in 384-well 384-well flat bottom tissue culture treated clear bottom plate (Corning 3707) in the presence of the test compound. […] The final concentration of DMSO was 0.5%. Fetal bovine serum was 5%, in the assay media. Cells were harvested on day 3 by removing media and washing the cells with a suitable wash buffer. The cells are lysed with the addition of 1× Qiagen lysis buffer (Cat #1062731). The replicon RNA level was measured using real time PCR (TaqMan® EZ RT-PCR, Applied Biosystems 403028) with the following primers and probes: […]
# (§2) Cyclophilin RNA was used as endogenous control and was amplified in the same reaction as NS5B (multiplex PCR). The real-time RT-PCR reactions were run on ABI PRISM 7900HT Sequence Detection System using the following program: 50° C. for 2 minutes, 60° C. for 30 minutes, 95° C. for 5 minutes, 40 cycles of 94° C. for 20 sec, 55° C. for 1 minutes.
# (§3) The amount of HCV replicon RNA per cell is quantified using a linear regression curve for a known nanogram (ng) amount of HCV replicon total RNA. This is established by plotting the Cycle Threshold values (Ct) from the Neo probe and primer set versus the log (ng) for each HCV replicon total RNA standard. The amount of HCV RNA for each replicon sample is calculated by taking the sample's Ct value, minus the line intercept, divided by the slope of the line. Similarly, the amount of Cyclophilin mRNA per cell is also quantified using a linear regression curve for a known nanogram (ng) amount of HCV replicon total RNA. Again, this is established by plotting the Cycle Threshold values (Ct) from the Cyclophilin probe and primer set versus the log (ng) for each HCV replicon total RNA standard.
# (§4) Data for replicons 1A, 1AY93H and 2B were obtained using Replicon Assay A and data for replicons 1AQ30D and 1B were obtained using Replicon Assay B.
# HCV replicon 1A = tested on: HCV replicon 1A
# Procedure: as §1, §2, §3, §4
# HCV replicon 2B = tested on: HCV replicon 2B
# Procedure: as §1, §2, §3, §4
# [1] = read-out: 1A Y93H IC50, replicon 1AY93H
# [2] = read-out: 1A Y93H IC50, HCV replicon 1A Y93H
# [3] = Hepatitis C virus, read-out: 1A Y93H IC50 (nM), replicon 1AY93H
# [4] = Hepatitis C virus, read-out: 2B IC50 (nM), replicon 2B
# [5] = read-out: 2B IC50, HCV replicon 2B
structure (smiles),measurement,setting,value
"COC(=O)NC(C(=O)N1CCC[C@H]1c1ncc(-c2ccc3c(c2)cc2n3C(c3cc(C)c(C)s3)Oc3cc(-c4cnc([C@@H]5CCCN5C(=O)[C@@H](NC(=O)OC)C(C)C)[nH]4)cc(F)c3-2)[nH]1)C(C)(C)F (single isomer, unassigned) [Compound 42]",IC50,HCV replicon 1AY93H; [1],42.5 nM
same,IC50,HCV replicon 1A; replicon 1A,0.0287 nM
"COC(=O)N[C@H](C(=O)N1CCC[C@H]1c1ncc(-c2ccc3c(c2)OC(c2ccc(C4CC4)s2)n2c-3c(F)c3cc(-c4cnc([C@@H]5CCCN5C(=O)[C@@H](NC(=O)OC)C(C)C)[nH]4)ccc32)[nH]1)C(C)C (single isomer, unassigned) [Compound 605]",IC50,HCV replicon 1AY93H; [2],1.26 nM
same,IC50,HCV replicon 1A; HCV replicon 1A,0.0017 nM
"COC(=O)N[C@H](C(=O)N1CCC[C@H]1c1ncc(-c2cc(F)c3c(c2)OC(c2ccc(CCC4CC4)s2)n2c-3cc3cc(-c4cnc([C@@H]5CCCN5C(=O)[C@@H](NC(=O)OC)C(C)C)[nH]4)ccc32)[nH]1)C(C)C (single isomer, unassigned) [Compound 91]",IC50,HCV replicon 1AY93H; [3],0.28 nM
same,IC50,HCV replicon 2B; [4],3.14 nM
"COC(=O)NC(C(=O)N1CCC[C@H]1c1ncc(-c2ccc3c(c2)cc2n3C(c3cc(C)c(C)s3)Oc3cc(-c4cnc([C@@H]5CCCN5C(=O)[C@@H](NC(=O)OC)C(C)C)[nH]4)cc(F)c3-2)[nH]1)C(C)(C)F (single isomer, unassigned) [Compound 41]",IC50,HCV replicon 1AY93H; [1],2.45 nM
same,IC50,HCV replicon 1A; replicon 1A,0.002 nM
"COC(=O)NC(C(=O)N1[C@@H]2C[C@@H]2C[C@H]1c1ncc(-c2ccc3c(c2)cc2n3C(c3ccc(C4CC4)s3)Oc3cc(-c4cnc([C@@H]5CCCN5C(=O)[C@@H](NC(=O)OC)C(C)C)[nH]4)cc(F)c3-2)[nH]1)C1CCOC(C)(C)C1 (single isomer, unassigned) [Compound 277]",IC50,HCV replicon 1AY93H; [1],0.13 nM
same,IC50,"HCV replicon 2B; read-out: 2B IC50, replicon 2B",0.58 nM
"COC(=O)NC(C(=O)N1CCC[C@H]1c1ncc(-c2ccc3c(c2)cc2n3C(c3cc(C)c(C)s3)Oc3cc(-c4cnc([C@@H]5CCCN5C(=O)[C@@H](NC(=O)OC)C(C)C)[nH]4)cc(F)c3-2)[nH]1)C(C)(C)F (single isomer, unassigned) [Compound 40]",IC50,HCV replicon 1AY93H; [1],1.12 nM
same,IC50,HCV replicon 1A; replicon 1A,0.002 nM
"COC(=O)N[C@H](C(=O)N1CCC[C@H]1c1ncc(-c2cc(F)c3c(c2)OC(c2cc(C)c(C)s2)n2c-3cc3cc(-c4cnc([C@@H]5C[C@H]6C[C@H]6N5C(=O)[C@@H](NC(=O)OC)C(C)C)[nH]4)ccc32)[nH]1)C(C)C (single isomer, unassigned) [Compound 509]",IC50,HCV replicon 1AY93H; [2],6.12 nM
same,IC50,HCV replicon 2B; [5],6.82 nM
"COC(=O)NC(C(=O)N1CCC[C@H]1c1ncc(-c2ccc3c(c2)cc2n3C(c3ccc(C4CC4)s3)Oc3cc(-c4cnc([C@@H]5CCCN5C(=O)[C@@H](NC(=O)OC)C(C)C)[nH]4)cc(F)c3-2)[nH]1)C1CCOC(C)(C)C1 (single isomer, unassigned) [Compound 224]",IC50,HCV replicon 1AY93H; [1],8.88 nM
same,IC50,HCV replicon 1A; replicon 1A,0.048 nM
"CCc1ccc(C2Oc3cc(-c4cnc([C@@H]5CCCN5C(=O)[C@@H](NC(=O)OC)C(C)C)[nH]4)cc(F)c3-c3cc4cc(-c5cnc([C@@H]6C[C@@H](F)CN6C(=O)C(NC(=O)OC)C6CCOC(C)(C)C6)[nH]5)ccc4n32)s1 (single isomer, unassigned) [Compound 255]",IC50,HCV replicon 1AY93H; [1],0.084 nM
same,IC50,"HCV replicon 2B; read-out: 2B IC50, replicon 2B",3.63 nM
"COC(=O)N[C@H](C(=O)N1CCC[C@H]1c1ncc(-c2cc(F)c3c(c2)OC(c2cc(C)c(C)s2)n2c-3cc3cc(-c4cnc([C@@H]5C[C@H]6C[C@H]6N5C(=O)[C@@H](NC(=O)OC)C(C)C)[nH]4)ccc32)[nH]1)C(C)C (single isomer, unassigned) [Compound 507]",IC50,HCV replicon 1AY93H; [2],0.0896 nM
same,IC50,HCV replicon 2B; [5],1.88 nM
"CCc1ccc(C2Oc3cc(-c4cnc([C@@H]5CCCN5C(=O)[C@@H](NC(=O)OC)C(C)C)[nH]4)cc(F)c3-c3cc4cc(-c5cnc([C@@H]6C[C@H]7C[C@H]7N6C(=O)C(NC(=O)OC)C6CCOC(C)(C)C6)[nH]5)ccc4n32)s1 (single isomer, unassigned) [Compound 198]",IC50,HCV replicon 1AY93H; [1],14.3 nM
same,IC50,HCV replicon 1A; replicon 1A,0.077 nM
"CCc1ccc(C2Oc3cc(-c4cnc([C@@H]5CCCN5C(=O)[C@@H](NC(=O)OC)C(C)C)[nH]4)ccc3-c3c(F)c4cc(-c5cnc([C@@H]6CCCN6C(=O)[C@@H](NC(=O)OC)C(C)C)[nH]5)ccc4n32)s1 (single isomer, unassigned) [Compound 601]",IC50,HCV replicon 1AY93H; [2],4 nM
same,IC50,HCV replicon 2B; [5],1.24 nM
"CCc1ccc(C2Oc3cc(-c4cnc([C@@H]5CCCN5C(=O)[C@@H](NC(=O)OC)C(C)C)[nH]4)cc(F)c3-c3cc4cc(-c5cnc([C@@H]6C[C@@H](F)CN6C(=O)C(NC(=O)OC)C6CCOC(C)(C)C6)[nH]5)ccc4n32)s1 (single isomer, unassigned) [Compound 256]",IC50,HCV replicon 1AY93H; [1],16.9 nM
same,IC50,HCV replicon 1A; replicon 1A,0.117 nM
COC(=O)N[C@H](C(=O)N1C[C@H](F)C[C@@H]1c1ncc(-c2ccc3c(c2)OC(c2cc4ccccc4s2)n2c-3cc3cc(-c4ncc([C@@H]5C[C@@H](F)CN5C(=O)[C@@H](NC(=O)OC)C5CCOCC5)[nH]4)ccc32)[nH]1)C1CCOCC1 (mixture of isomers) [Compound 814],IC50,"HCV replicon 1AY93H; Hepatitis C virus, read-out: 1A Y93H IC50, HCV replicon 1A Y93H",0.055 nM
same,IC50,"HCV replicon 1A; Hepatitis C virus, HCV replicon 1A",0.1 nM
"COC(=O)NC(C(=O)N1CCC[C@H]1c1ncc(-c2ccc3c(c2)cc2n3C(c3ccc(C4CC4)s3)Oc3cc(-c4cnc([C@@H]5C[C@@H](F)CN5C(=O)[C@@H](NC(=O)OC)C(C)C)[nH]4)cc(F)c3-2)[nH]1)C(C)(C)F (single isomer, unassigned) [Compound 113]",IC50,HCV replicon 1AY93H; [1],3.92 nM
same,IC50,HCV replicon 1A; replicon 1A,0.0428 nM
"COC(=O)NC(C(=O)N1CCC[C@H]1c1ncc(-c2cc(F)c3c(c2)OC(c2ccc(C4CC4)s2)n2c-3cc3cc(-c4cnc([C@@H]5CCCN5C(=O)[C@@H](NC(=O)OC)C(C)C)[nH]4)ccc32)[nH]1)C1CCOC(C)(C)C1 (single isomer, unassigned) [Compound 213]",IC50,HCV replicon 1AY93H; [1],13.6 nM
same,IC50,HCV replicon 1A; replicon 1A,0.0653 nM
"COC(=O)N[C@H](C(=O)N1CCC[C@H]1c1ncc(-c2cc(F)c3c(c2)OC(c2ccc(CC4CC4)s2)n2c-3cc3cc(-c4cnc([C@@H]5CCCN5C(=O)[C@@H](NC(=O)OC)C(C)C)[nH]4)ccc32)[nH]1)C(C)C (single isomer, unassigned) [Compound 53]",IC50,HCV replicon 1AY93H; [3],1.87 nM
same,IC50,HCV replicon 2B; [4],1.95 nM
"COC(=O)N[C@H](C(=O)N1CCC[C@H]1c1ncc(-c2cc(F)c3c(c2)OC(c2scc4c2OCCO4)n2c-3cc3cc(-c4cnc([C@@H]5CCCN5C(=O)[C@@H](NC(=O)OC)C(C)C)[nH]4)ccc32)[nH]1)C(C)C (single isomer, unassigned) [Compound 525]",IC50,HCV replicon 1AY93H; [2],15.1 nM
same,IC50,HCV replicon 2B; [5],3.14 nM
"COC(=O)NC(C(=O)N1CCC[C@H]1c1ncc(-c2ccc3c(c2)cc2n3C(c3ccc(C(F)F)s3)Oc3cc(-c4cnc([C@@H]5CCCN5C(=O)[C@@H](NC(=O)OC)C(C)C)[nH]4)cc(F)c3-2)[nH]1)C1C[C@@H](C)O[C@@H](C)C1 (single isomer, unassigned) [Compound 265]",IC50,HCV replicon 1AY93H; [1],0.16 nM
same,IC50,"HCV replicon 2B; read-out: 2B IC50, replicon 2B",0.25 nM
"COC(=O)N[C@H](C(=O)C1CCC[C@H]1c1ncc(-c2ccc3c(c2)cc2n3C(c3ccc(C(F)(F)F)s3)Oc3cc(-c4cnc([C@@H]5CCCN5C(=O)[C@@H](NC(=O)OC)C(C)C)[nH]4)cc(F)c3-2)[nH]1)C(C)C (single isomer, unassigned) [Compound 90]",IC50,HCV replicon 1AY93H; [1],0.74 nM
same,IC50,"HCV replicon 2B; read-out: 2B IC50, replicon 2B",1.91 nM
"COC(=O)NC(C(=O)N1CCC[C@H]1c1ncc(-c2ccc3c(c2)cc2n3C(c3ccc(C4CC4)s3)Oc3cc(-c4cnc([C@@H]5CCCN5C(=O)[C@@H](NC(=O)OC)C(C)C)[nH]4)cc(F)c3-2)[nH]1)C1CCCCO1 (single isomer, unassigned) [Compound 341]",IC50,HCV replicon 1AY93H; [1],0.52 nM
same,IC50,"HCV replicon 2B; read-out: 2B IC50, replicon 2B",1.24 nM
"COC(=O)NC(C(=O)N1[C@@H]2C[C@@H]2C[C@H]1c1ncc(-c2ccc3c(c2)cc2n3C(c3ccc(C(C)C)s3)Oc3cc(-c4cnc([C@@H]5CCCN5C(=O)[C@@H](NC(=O)OC)C(C)C)[nH]4)cc(F)c3-2)[nH]1)C1C[C@@H](C)O[C@@H](C)C1 (single isomer, unassigned) [Compound 283]",IC50,HCV replicon 1AY93H; [3],0.192 nM
same,IC50,HCV replicon 2B; [4],0.68 nM
"COC(=O)NC(C(=O)N1CCC[C@H]1c1ncc(-c2cc(F)c3c(c2)OC(c2ccc(C4CC4)s2)n2c-3cc3cc(-c4cnc([C@@H]5C[C@H]6C[C@H]6N5C(=O)[C@@H](NC(=O)OC)C(C)C)[nH]4)ccc32)[nH]1)C(C)(C)F (single isomer, unassigned) [Compound 99]",IC50,HCV replicon 1AY93H; [1],0.53 nM
same,IC50,"HCV replicon 2B; read-out: 2B IC50, replicon 2B",1.55 nM
